One block for each compound: values may come before it. Where a SMILES comes first, the peptide text is derived from it.
How the values were obtained:
[1] = test system: sputum neutrophils; parameters: method as in PMID 27806191; settings: cystic fibrosis patients; cited from earlier work
[2] = test system: asthma bronchial allergen challenge; parameters: method as in PMID 25018015; settings: asthma bronchial allergen challenge trial; cited from earlier work
[3] = test system: neutrophil influx into dorsal air-pouch; assay: Air-pouch model of acute inflammation; type: in vivo, mouse; settings: for PGP concentration in air-pouch exudate: PGP 500 μg/mouse
Description: Air-pouches were formed by subcutaneous injection of 5 ml air through a 0.22 μm filter on the backs of female LTA4H KO or wt mice. The patency of the cavity was maintained by a further 3 ml injection on day 3. Six days after the initial injection of air, LPS at 10 µg/animal and PGP, Ac-PGP, at different concentrations up to 500 µg/animal were injected into the air pouches. […] An incision was made on the top of the pouch and the injected lavage fluid pipetted out into an eppendorf tube. An aliquot of air pouch lavage fluid was used to determine total cell counts on an Advia 120® Haematology Analyser. To determine differential cell counts, cytospins were prepared for all pouch fluid samples. The cytospins were air dried prior to staining with DiffQwik differential staining solutions. Differential cell counts were performed manually (x200 magnification) to determine the percentage of neutrophil and non-neutrophil cell populations in each sample.

[4] = test system: human neutrophils; assay: Human neutrophil calcium flux assay; type: cell-based; settings: up to mM concentrations
Description: Purified human neutrophils were incubated in Calcium 5 loading buffer (Molecular Devices) containing Probenecid (2.5 mM, SIGMA) at 37 °C, 5% CO2 and 90% humidity for 1 h. 20 µl of the cell suspension were then transferred to a black 384-well plate with clear bottom and centrifuged at 100 g for 4 min. Test compounds PGP, Ac-PGP and fMLP (SIGMA) were prepared at graded concentrations in HBSS containing HEPES (20 mM). Fluorescence was measured in FLIPR Tetra reader (Molecular Devices) every second before and after the addition of 5 µl of compounds dilutions. The calculated F index is the difference between the maximum signal and the average baseline signal, divided by the average baseline signal.

[5] = test system: human neutrophils; assay: Human neutrophil chemotaxis assay; type: cell-based; settings: graded concentrations up to mM range, 90 min at 37 °C
Description: Purified human neutrophils were labeled with calcein-AM (Fluka, Buchs, Switzerland). Test compounds (PGP, Ac-PGP, RTR, and Ac-RTR) or IL-8 (Sigma) as positive chemoattractant control were diluted in RPMI containing BSA (0.1%) and added at graded concentrations into the wells of a 96-well ChemoTX plate (3.2 mm diameter, 5 µm pore size; NeuroProbe, Gaithersburg, MD). Labeled cells (50,000 per well) were added onto the filters above the wells that received the test compounds. Plates were incubated for 90 min at 37 °C. The filters were removed and fluorescence in the receiving wells was measured using a SpectraMAX Gemini EM instrument (Molecular Devices, Sunnyvale, CA; λex = 485 nm; λem = 538 nm). The chemotactic index was measured as the ratio of fluorescence in the test wells and in control (buffer only) wells.

[6] = target: T1, LTA4H (Homo sapiens, UniProt P09960); assay: PGP degradation assay in human blood; type: cell-based; parameters: Fresh blood was collected in heparinized tubes by venipuncture from volunteers; from tissue; host or cells: fresh human whole blood from volunteers, diluted 1:3 in RPMI; settings: untreated and LPS stimulated blood, 24 h at 37 °C
T1 sequence (P09960 1-611): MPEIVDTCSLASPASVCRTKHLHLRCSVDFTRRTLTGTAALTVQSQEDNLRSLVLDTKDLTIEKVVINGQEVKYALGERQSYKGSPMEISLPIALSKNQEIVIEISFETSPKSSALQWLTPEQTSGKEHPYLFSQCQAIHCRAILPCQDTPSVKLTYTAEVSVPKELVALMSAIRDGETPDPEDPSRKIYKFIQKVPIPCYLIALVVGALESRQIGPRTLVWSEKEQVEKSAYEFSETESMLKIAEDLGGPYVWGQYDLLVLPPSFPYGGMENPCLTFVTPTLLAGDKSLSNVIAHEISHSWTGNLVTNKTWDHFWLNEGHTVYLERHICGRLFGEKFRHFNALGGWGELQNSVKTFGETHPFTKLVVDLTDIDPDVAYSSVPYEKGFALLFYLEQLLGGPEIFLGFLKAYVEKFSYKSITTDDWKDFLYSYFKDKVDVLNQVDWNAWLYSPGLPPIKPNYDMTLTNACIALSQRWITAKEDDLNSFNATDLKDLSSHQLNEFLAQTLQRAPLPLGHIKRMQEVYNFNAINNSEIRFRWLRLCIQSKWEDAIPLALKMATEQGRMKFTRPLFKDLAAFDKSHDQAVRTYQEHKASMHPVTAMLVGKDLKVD
Description: Fresh blood was collected in heparinized tubes by venipuncture from volunteers from the Novartis Blood Donor Center, Basel. The blood was diluted 1:3 in Roswell Park Memorial Institute (RPMI) containing HEPES (0.025 M). […] PGP and LPS were added at final concentrations of 2 µg/ml each and incubated up to 24 h at 37 °C, 5% CO2 and 90% humidity before samples were collected for LC-MS/MS analysis.

[7] = test system: human neutrophils; assay: ROS generation in human neutrophils; type: cell-based; settings: up to mM concentrations
Description: Purified human neutrophils were plated in RPMI + FCS (5%) in 96-well cell culture plates (100,000 cells/well). Dihydrorhodamine 123 (SIGMA) was added at a final concentration of 3 µM together with PGP, Ac-PGP and fMLP (SIGMA) at graded concentrations and incubated for 30 min at 37 °C, 5% CO2 and 90% humidity. […] Amount of generated ROS is given as GMFI (sample)/GMFI (unstimulated control).

[8] = test system: human neutrophils; assay: Human neutrophil shape change assay; type: cell-based; settings: up to 100 μM
Description: Neutrophils were purified by Ficoll density gradient centrifugation from human blood and incubated with graded concentrations of PGP, Ac-PGP or the known neutrophil chemoattractant GROα in assay buffer containing BSA (0.1%) in PBS for 10 min at 37 °C, 5% CO2 and 90% humidity. Cells were then fixed and shape change analyzed by flow cytometry.

[9] = PGP degradation assay in BALF ex-vivo (LC-MS/MS); type: in vitro ADME, mouse
Description: 200 µl of BALF were spiked with PGP and Ac-PGP at the final concentration of 10 nM. […] After incubation, samples were filtered (Amicon Ultra-0.5, Membrane Ultracel-30, PMNL 30 kD) by centrifugation (3 min at 10,000 × g). Filtered samples were transferred to vials for liquid chromatography tandem mass spectrometry (LC-MS/MS) analysis. The LC system consisted of an Acquity UPLC I-Class interfaced with a Xevo-TQS triple quadruple MS (Waters). […] PGP was monitored with MRM m/z transitions of 270.1 > 173.1 (quantifier) and 270.1 > 70.1 and 270.1 > 116.1 (qualifiers). Ac-PGP was monitored with m/z transitions of 312.2 > 112.1 (quantifier) and 312.2 > 116.1 and 312.2 > 140.1 (qualifiers).

[10] = test system: neutrophil influx into lungs; assay: Stimulation of lungs with PGP and Ac-PGP (intra-tracheal); type: in vivo, mouse; settings: PGP up to 500 μg intra-tracheal, wt or LTA4H KO mice, 24 h
Description: PGP or Ac-PGP in increasing doses up to 500 ug per mouse were applied by intra-tracheal administration in 50 µl PBS to female LTA4H KO or wild type mice. After 24 h, the mice were euthanized and BALF was collected by cannulating the trachea with a catheter and lavaging the lungs 3 times with 0.4 ml cold PBS. The lavage fluid was then centrifuged and the cells analyzed by flow cytometry. Cell supernatants were used for analysis of MPO and cytokine content in BALF.

[11] = test system: human neutrophils; parameters: method as in earlier work; settings: ref 27 Haddox et al.; read-out: EC50 chemotaxis of human neutrophils; cited from earlier work

SMILES: O=C(O)c1ccc(CN2C[C@@H]3C[C@H]2CN3Cc2ccc(Oc3ccc(-c4ncco4)cc3)cc2)cc1 [Acebilustat]
reduction of sputum neutrophils [1]: 65%

SMILES: CC(=O)NC1C[C@H]2CC[C@@H](C1)N2Cc1ccc(Oc2nc3ncccc3s2)cc1 (some centres unmarked) [JNJ-40929837]
clinical efficacy [2]: did not show efficacy

PGP concentration in air-pouch exudate ([3]; LTA4H KO mice, 1 h after injection): approximately 1 µg/ml | PGP concentration in air-pouch exudate ([3]; LTA4H KO mice, 4 h and 24 h after injection): no PGP was detectable | Degradation of PGP in human blood [6]: complete disappearance | PGP level after spiking into BALF ([9]; BALF from LPS challenged wt mice, PGP 10 nM, 4 h at 37 °C): undetectable levels | PGP still present ([9]; exudate (BALF) of LTA4H KO mice, after 24 h): over 80%
SMILES: O=C(NCC(=O)N1CCC[C@H]1C(=O)O)[C@@H]1CCCN1 [PGP, H-Pro-Gly-Pro] (H-Pro-Gly-Pro-OH)
cell influx in air-pouch ([3]; 500 μg PGP, LTA4H KO mice, 24 h): failed to detect significant cell influx | cell numbers (neutrophil influx) in air-pouch ([3]; PGP up to 500 μg per air-pouch, Balb/c mice, 4 h): did not show elevated cell numbers compared to saline control | neutrophil influx in air-pouch ([3]; mice pre-treated with 30 mg/kg DG-051 before PGP injection, 4 h): unable to detect neutrophil influx | induction of Ca2+ flux [4]: neither PGP nor Ac-PGP induced | neutrophil chemotaxis [5]: no significant increase in chemotaxis | ROS production [7]: neither PGP nor Ac-PGP induced | neutrophil shape change response [8]: no response | influx of neutrophils by flow cytometry of BALF cells [10]: neither able to detect influx of neutrophils | myeloperoxidase (MPO) in BALF ([10]; versus PBS control): nor elevation of myeloperoxidase (MPO) beyond the PBS control | EC50 [11]: 15 mM
